# Measured values from US20100291592A1, “NOVEL MARKER FOR SENSITIVITY AGAINST SULFONAMIDE COMPOUND” (priority 2006, published 2010).
# What was measured:
# EGFR1 [1] = experiment: EGFR1 expression level in cultured PC9 (flow cytometry); assay type: cell-based, human; details: for EGFR1 expression level (% of control) PC9: two days of culture
# Experimental: (§1) PC9 or A549 was suspended in RPMI1640 (containing 10% FBS) to 1×10^5 cells/ml. Then, 1 ml each of these suspensions was placed into each well of a 6-well plate and cultured in a 5% carbon dioxide incubator at 37° C. On the following day, 1 ml each of E7820 culture dilutions at respective concentrations (0-20 μM) was added to the cells in each well for further culture. After two days of culture, the cells were collected with trypsin-EDTA according to a routine procedure, which were suspended in PBS containing 0.5% BSA. Subsequently, an anti-EGFR1 antibody (BD Biosciences) was added to these suspensions and incubated at 4° C. for 30 minutes. Centrifugation and washing with PBS were carried out according to routine procedures to remove an excessive amount of the antibody. Then, an RPE-labeled anti-mouse IgG antibody was added to these suspensions and incubated at 4° C. for 30 minutes. Centrifugation and washing with PBS were carried out according to routine procedures to remove an excessive amount of the antibody. Finally, the EGFR1 expression level in PC9 and A549 were determined with FACSCalibur (Japan Becton, Dickinson and Company).
# [2] = system: human non-small cell lung cancer cell line (A549); experiment: Anti-tumor effect on subcutaneous transplant model of A549; assay type: in vivo, nude mouse; details: 50 or 200 mg/kg orally twice a day for 7 days
# Experimental: (§2) Human non-small-cell lung cancer cell line PC9 (obtained from Immuno-Biological laboratories Co., Ltd.), human non-small-cell lung cancer cell line A549 (obtained from Dainippon Pharmaceutical), human colon cancer cell line WiDr (obtained from Dainippon Pharmaceutical) and human colon cancer cell line HCT116 (obtained from ATCC) were cultured in RPMI1640 (containing 10% FBS) in a 5% carbon dioxide incubator at 37° C. to about 80% confluence, and the cells were collected with trypsin-EDTA. Using a phosphate buffer for PC9, WiDr and HCT116 and a 50% matrigel-containing phosphate buffer for A549, 5×10^7 cells/mL suspensions were prepared, respectively. Then, 0.1 mL each of the resulting cell suspensions was subcutaneously transplanted to the side of a nude mouse.
# (§3) For PC9, 8 days after the transplantation, E7820 was orally administered for 50 mg/kg, 100 mg/kg or 200 mg/kg twice a day for 14 days. For A549, 24 days after the transplantation, E7820 was orally administered for 50 mg/kg or 200 mg/kg twice a day for 7 days. For WiDr, 11 days after the transplantation, E7820 was orally administered for 50 mg/kg, 100 mg/kg or 200 mg/kg twice a day for 14 days. […]
# (§4) The major and minor axes of tumors were measured with Digimatic caliper (Mitsutoyo), and tumor volumes and relative tumor volumes were calculated according to the following formulae. […]
# [3] = system: human colon cancer cell line (HCT116); experiment: Anti-tumor effect on subcutaneous transplant model of HCT116; assay type: in vivo, nude mouse; details: 6.25-200 mg/kg orally twice a day for 14 days
# Experimental: as §2, §3, §4
# EGFR1 [4] = experiment: EGFR1 expression level in cultured A549 (flow cytometry); assay type: cell-based, human; details: for EGFR1 expression level (% of control) A549: two days of culture, flow cytometry
# Experimental: as §1
# EGFR1 [5] = experiment: EGFR1 expression level in HCT116 subcutaneous transplant model (western blotting); assay type: in vivo, nude mouse; details: for EGFR1 expression level (% of control) HCT116: HCT116 tumor in nude mouse
# Experimental: (§5) HCT116 or WiDr was cultured in RPMI1640 (containing 10% FBS) in a 5% carbon dioxide incubator to about 80% confluence. The cells were collected with trypsin-EDTA according to a routine procedure and 5×10^7 cells/mL suspensions were prepared with a phosphate buffer. Then, 0.1 mL each of the resulting suspension was subcutaneously transplanted to the side of a nude mouse.
# (§6) For HCT116, 23 days after the transplantation, E7820 was orally administered for 12.5 mg/kg, 50 mg/kg or 200 mg/kg twice a day for 3 days. On the other hand, for WiDr, 18 days after the transplantation, E7820 was orally administered for 50 mg/kg or 200 mg/kg twice a day for 7 days. Four days after the start of administration for HCT116 and 8 days after the start of administration for WiDr, tumors were removed to prepare tumor cell lysates with various protease inhibitors and a cell lysis solution containing 10% glycerol and 1% Triton X-100 in ice. For each tumor cell lysate, an equal amount of protein was fractionated by SDS-PAGE and transferred onto a nitrocellulose membrane (Hybond ECL, Amersham Biosciences). Then, western blotting was performed by using an anti-EGFR1 antibody (Santa Cruz Biotechnology) and horse radish peroxidase-labeled anti-mouse IgG antibody (secondary antibody) (Cell Signaling) according to a routine procedure.
# (§7) Detection and quantification of each band were carried out as follows. First, each band was forced to chemically develop a color with Chemiluminescent Substrate (PIERCE), which was then captured as a digital image with Image Master VDS-CL (Amersham Pharmacia Biotech, Tokyo). The digital images were saved as TIF files and numerically converted with Image Master total Lab (version 1.00, Amersham Pharmacia Biotech, Tokyo).
# EGFR1 [6] = experiment: EGFR1 expression level in WiDr subcutaneous transplant model (western blotting); assay type: in vivo, nude mouse; details: for EGFR1 expression level (% of control) WiDr: WiDr tumor in nude mouse
# Experimental: as §5, §6, §7
compound,measurement,setting,value
"Cc1ccc(NS(=O)(=O)c2cccc(C#N)c2)c2[nH]cc(C#N)c12 [E7820, N-(3-cyano-4-methyl-1H-indole-7-yl)-3-cyanobenzenesulfonamide]",EGFR1 expression level (% of control) PC9,"EGFR1 [1]; PC9, E7820 0.01 μM",95 % of control
same,EGFR1 expression level (% of control) PC9,"EGFR1 [1]; PC9, E7820 0.03 μM",91 % of control
same,EGFR1 expression level (% of control) PC9,"EGFR1 [1]; PC9, E7820 0.1 μM",80 % of control
same,EGFR1 expression level (% of control) PC9,"EGFR1 [1]; PC9, E7820 0.3 μM",65 % of control
same,EGFR1 expression level (% of control) PC9,"EGFR1 [1]; PC9, E7820 1 μM",49 % of control
same,EGFR1 expression level (% of control) PC9,"EGFR1 [1]; PC9, E7820 3 μM",44 % of control
same,EGFR1 expression level (% of control) PC9,"EGFR1 [1]; PC9, E7820 10 μM",37 % of control
same,Effect on EGFR1 expression level (in words),"EGFR1 [1]; cultured PC9, dose-dependent",greatly decreased the EGFR1 expression level
same,Anti-tumor effect (relative tumor volume),[2],showed anti-tumor effects
same,Anti-tumor effect (relative tumor volume),[3],stronger anti-tumor effects
same,EGFR1 expression level (% of control) A549,"EGFR1 [4]; A549, E7820 0.01 μM",93 % of control
same,EGFR1 expression level (% of control) A549,"EGFR1 [4]; A549, E7820 0.03 μM",97 % of control
same,EGFR1 expression level (% of control) A549,"EGFR1 [4]; A549, E7820 0.1 μM",95 % of control
same,EGFR1 expression level (% of control) A549,"EGFR1 [4]; A549, E7820 0.3 μM",91 % of control
same,EGFR1 expression level (% of control) A549,"EGFR1 [4]; A549, E7820 1 μM",80 % of control
same,EGFR1 expression level (% of control) A549,"EGFR1 [4]; A549, E7820 3 μM",64 % of control
same,EGFR1 expression level (% of control) A549,"EGFR1 [4]; A549, E7820 10 μM",73 % of control
same,Effect on EGFR1 expression level (in words),"EGFR1 [4]; cultured A549, flow cytometry",slightly decreased the EGFR1 expression level
same,Effect on EGFR1 expression level (in words),"EGFR1 [5]; HCT116 transplanted tumors, dose-dependent",decreased the EGFR1 expression level
same,EGFR1 expression level (% of control) HCT116,EGFR1 [5]; 12.5 mg/kg orally twice a day for 3 days,37 % of control
same,EGFR1 expression level (% of control) HCT116,EGFR1 [5]; 50 mg/kg orally twice a day for 3 days,47 % of control
same,EGFR1 expression level (% of control) HCT116,EGFR1 [5]; 200 mg/kg orally twice a day for 3 days,42 % of control
same,Effect on EGFR1 expression level (in words),EGFR1 [6]; WiDr transplanted tumors,did not change the EGFR1 expression level
same,EGFR1 expression level (% of control) WiDr,EGFR1 [6]; 50 mg/kg orally twice a day for 7 days,117 % of control
same,EGFR1 expression level (% of control) WiDr,EGFR1 [6]; 200 mg/kg orally twice a day for 7 days,121 % of control
